The results in this text go back to patent US20170173008A1, “ANTIMICROBIAL AGENTS AND SCREENING METHODS” (PRESIDENT AND FELLOWS OF HARVARD COLLEGE, priority 2014, published 2017).

The structures appear in SMILES notation.

One experiment has as its target T1, DsbB (Escherichia coli, UniProt P0A6M2, C49V/C8A).
T1 construct: expressed in transfected cells; host or cells: E. coli DHB7935 (HK295 ΔdsbB λatt::malF-lacZ102, φ80::pDSW206dsbBhis6-c-myc)
The experiment can be described thus: cell-based. The format is cell-based, E. coli. Particulars: for EC50 RATIO (EC50 compound 16/EC50): E. coli DHB7935, liquid media.

The test system of a further experiment is M. tuberculosis H37Rv. The experiment can be described thus: M. tuberculosis H37Rv growth inhibition (Alamar Blue MIC). The format is cell-based, Mycobacterium tuberculosis. The settings on record: three different media.
The target of another experiment is E. coli DsbB (Escherichia coli, UniProt P0A6M2). As to the kind of experiment: Blue/white beta-galactosidase agar assay, DsbB-based E. coli strain. The format is cell-based. Particulars: agar assay.
E. coli DsbB, sequence (P0A6M2 whole entry): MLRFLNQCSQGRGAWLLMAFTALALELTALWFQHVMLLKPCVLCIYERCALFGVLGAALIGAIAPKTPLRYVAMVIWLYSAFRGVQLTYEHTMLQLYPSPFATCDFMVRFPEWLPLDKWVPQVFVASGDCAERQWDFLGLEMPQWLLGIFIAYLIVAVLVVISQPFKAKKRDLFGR
The target of a further experiment is T2, purified EcDsbB (Escherichia coli, UniProt P0A6M2, C49V/C8A).
T2 construct: made in house; host or cells: E. coli
T2 sequence (P0A6M2 whole entry C8A/C49V): as the sequence (P0A6M2 whole entry) above, with C8A, C49V counted along it
The experiment can be described thus: In vitro assay of purified DsbB (ubiquinone reduction). Particulars: IC50 (μM), Table 9. It counts as biochemical, E. coli. The source says:
In addition to the in vivo assays of MICs, we have purified DsbB from E. coli and assessed the concentration dependence for inhibition of the enzyme's activity in oxidizing DsbA.
In this assay, we determine the concentration of a compound necessary to reduce the activity of purified DsbB enzyme by 50%. DsbB uses ubiquinone as a co-factor for the generation of disulfide bonds. DsbB oxidizes DsbA and reduces ubiquinone. When it is in the oxidized state, ubiquinone absorbs strongly at 275 nm but it has a diminished absorbance when it is in the reduced state at the same wavelength. Therefore, DsbB activity can be measured by the reduction of ubiquinone and this is assessed by following the decrease of absorbance of ubiquinone at 275 nm. The assay uses 20 μM purified and DTT-reduced DsbA, 20 uM UbQ-5, and 2 nM purified DsbB at pH6.0.
We tested several compounds for their inhibitory effect on EcDsbB-mediated ubiquinone reduction using purified enzymes. In this assay, reduced DsbA provides the source of electrons that are used by EcDsbB to reduce ubiquinone-5. The compounds show dose-dependent inhibition of EcDsbB with half-maximal inhibitory concentrations (IC50) in the low-μM range.

The target of another experiment is T3, VKOR of M. tuberculosis (Mycobacterium tuberculosis, UniProt I6X5W1).
T3 sequence (I6X5W1 1-210): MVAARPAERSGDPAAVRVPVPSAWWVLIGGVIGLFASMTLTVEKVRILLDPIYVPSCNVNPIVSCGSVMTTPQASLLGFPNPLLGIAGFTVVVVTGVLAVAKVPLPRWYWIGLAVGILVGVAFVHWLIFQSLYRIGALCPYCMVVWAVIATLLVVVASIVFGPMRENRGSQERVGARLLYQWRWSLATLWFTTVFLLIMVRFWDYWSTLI
The format is cell-based. Particulars: agar assay.

T1 sequence (P0A6M2 whole entry C8A/C49V): as the sequence (P0A6M2 whole entry) above, with C8A, C49V counted along it

Take `O=c1c(Cl)c(Cl)cnn1-c1ccccc1Cl` [Compound 16.20]: on DsbB, it took 1.34 µM to reach a half-maximal effect (EC50) and the “EC50 RATIO (EC50 compound 16/EC50)” value worked out at 3.80.
Turning to `COC(C)(C)C#CC(=O)c1cccc2ccccc12` [Compound 23], the “effect on growth of M. tuberculosis (in words)” value (“effect on growth” for short) with M. tuberculosis H37Rv is given as “inhibitor of M. tuberculosis growth”. Also, the “inhibition of the DsbB-based strain, in words” value on E. coli DsbB is “weak inhibitor”.
Consider `CCCCNc1c(Cl)cnn(-c2ccccc2)c1=O` [Compound 13], for which, on purified EcDsbB, the IC50 is 8.12 µM. The concentration for a half-maximal effect (EC50) on DsbB amounted to 30.4 µM.
The compound `O=c1c(Cl)c(Cl)cnn1Cc1ccccc1OC(F)(F)F` [Compound 16.36, 4,5-dichloro-2-(2-(trifluoromethoxy)benzyl)pyridazin-3(2)-one] came in with an EC50 on DsbB of 7.12 µM.
Same read-out and setting: the value for `O=c1c(Cl)c(Cl)cnn1Cc1c(F)cccc1Cl` [Compound 16.22] was 18.1 µM; that for `O=c1c(Cl)c(Cl)cnn1Cc1ccncc1Cl` [Compound 16.39] was 15.2 µM.
Compound `O=c1c(Cl)c(Cl)cnn1-c1ccccc1` [Compound 16.2] had an IC50 against purified EcDsbB of 2.34 µM. For the same compound, at DsbB, the EC50 worked out at 2.04 µM, the “fold more inhibitory than compound 16” value is listed as 10 fold and the “EC50 RATIO (EC50 compound 16/EC50)” value worked out at 2.49.
On DsbB, `O=c1c(Cl)c(Br)cnn1Cc1ccccc1Cl` [Compound 16.44, 5-bromo-4-chloro-2-(2-chlorobenzyl)pyridazin-3(2H)-one] yielded an EC50 of 0.32 µM.
With `O=c1c(Cl)c(Cl)cnn1Cc1cccs1` [Compound 16.41, 4,5-dichloro-2-(thiophen-2-ylmethyl)pyridazin-3(2H)-one], the response on DsbB was half-maximal at 33.1 µM (EC50).
`O=c1c(Cl)c(Cl)cnn1Cc1ccc([N+](=O)[O-])cc1` [Compound 16.8] came in with an EC50 at DsbB of 38.7 µM.
For `O=c1c(Cl)c(Cl)cnn1Cc1ccccc1F` [Compound 16.23], on DsbB, a half-maximal response (EC50) required 3.09 µM and the “EC50 RATIO (EC50 compound 16/EC50)” value was 1.65.
Turning to `O=c1c(Cl)c(Cl)cnn1Cc1c(Cl)cccc1Cl` [Compound 16.37, 4,5-dichloro-2-(2,6-dichlorobenzyl)pyridazin-3(2H)-one], the EC50 on DsbB turned out to be 6570 µM.
`Cc1oncc1C(=O)Nc1ccccc1` [Compound 4]: in the experiment on M. tuberculosis H37Rv, the “effect on growth” value is recorded as “no effects”.
As to `Cc1c(Cl)cnn(Cc2ccccc2Cl)c1=O` [Compound 16.26, 5-chloro-2-(2-chlorobenzyl)-4-methylpyridazin-3(2H)-one], the response at DsbB was half-maximal at 18.7 µM (EC50).
The same measure, in the same setting: with `O=c1c(Cl)c(Cl)cnn1Cc1sccc1Cl` [Compound 16.42, 4,5-dichloro-2-((3-chlorothiophen-2-yl)methyl)pyridazin-3(2H)-one] the figure was 1.45 µM.
At purified EcDsbB, `CCOc1c(Cl)cnn(-c2ccccc2)c1=O` [Compound 14] showed an IC50 of 6.57 µM. At DsbB, the EC50 is 25.6 µM.
Turning to `O=c1c(Br)c(Br)cnn1Cc1ccccc1Cl` [Compound 16.27, 4,5-dibromo-2-(2-chlorobenzyl)pyridazin-3(2H)-one], at DsbB, the EC50 amounted to 0.025 µM.
Take `Cc1cccc(Cn2ncc(Cl)c(Cl)c2=O)c1` [Compound 16.4]: on purified EcDsbB, half-maximal inhibition (IC50) required 1.27 µM. For the same compound, at DsbB, a half-maximal response (EC50) required 13.9 µM and the “EC50 RATIO (EC50 compound 16/EC50)” value is given as 0.37.
As for `N#Cc1ccccc1Cn1ncc(Cl)c(Cl)c1=O` [Compound 16.14], at DsbB, the EC50 turned out to be 13.2 µM and the “EC50 RATIO (EC50 compound 16/EC50)” value stood at 0.39.
Consider `Cc1nnc(-c2cccc(C)c2C)c(C)n1` [Compound 8], for which the “effect on growth” value in the experiment on M. tuberculosis H37Rv is “no effects”.
The compound `COc1cccc(Cn2ncc(Cl)c(Cl)c2=O)c1` [Compound 16.11] came in with an EC50 on DsbB of 232 µM.
With `O=C1c2ccccc2C(=O)C1c1ccc(Br)cc1` [brominedione, reference compound], the “inhibition of the DsbB-based strain, in words” value at E. coli DsbB is given as “not of the DsbB-based strain”. In addition, the “inhibition in the VKOR screen (MtbVKOR-based strain), in words” value on VKOR of M. tuberculosis was “strong inhibitor”.
For the compound `O=c1c(Cl)c(Cl)cnn1Cc1ccccc1C(F)(F)F` [Compound 16.35, 4,5-dichloro-2-(2-(trifluoromethyl)benzyl)pyridazin-3(2H)-one], on DsbB, it took 2.81 µM to reach a half-maximal effect (EC50).
`O=c1c(Br)c(Br)cnn1Cc1ccccc1` [Compound 16.17] yielded a 50% effective concentration (EC50) on DsbB of 13.2 µM.
Still for that read-out and setting: with `O=c1c(Cl)c(Cl)cnn1Cc1ncccc1Cl` [Compound 16.40, 4,5-dichloro-2-((3-chloropyridin-2-yl)methyl)pyridazin-3(2H)-one] the figure was 10.8 µM.
Take `O=c1c(Cl)c(Cl)cnn1-c1ccccc1F` [Compound 16.24]: at DsbB, the EC50 was determined as 13.7 µM and the “EC50 RATIO (EC50 compound 16/EC50)” value is 0.73.
At DsbB, `O=c1cc(Cl)cnn1Cc1ccccc1Cl` [Compound 16.25, 5-chloro-2-(2-chlorobenzyl)pyridazin-3(2H)-one] came in with an EC50 of 8.37 µM.
The compound `O=c1c(N2CCCC2)c(Cl)cnn1-c1ccccc1` [Compound 15] gave an IC50 at purified EcDsbB of 8.24 µM. Moreover, the EC50 on DsbB is 28.1 µM.
Regarding `O=c1c(Br)c(Cl)cnn1Cc1ccccc1Cl` [Compound 16.43, 4-bromo-5-chloro-2-(2-chlorobenzyl)pyridazin-3(2H)-one], the EC50 on DsbB was 0.29 µM.
For `O=c1c(Cl)c(Cl)cnn1Cc1ccccc1Br` [Compound 16.12], at DsbB, the EC50 worked out at 0.47 µM, the “fold more inhibitory than compound 16” value is recorded as 10 fold and the “EC50 RATIO (EC50 compound 16/EC50)” value is 10.77.
Regarding `N#Cc1cccc(Cn2ncc(Cl)c(Cl)c2=O)c1` [Compound 16.9], the EC50 at DsbB worked out at 509 µM.
The compound `COc1c(Cl)cnn(-c2cccc(C)c2)c1=O` [Compound 17] yielded a half-maximal inhibitory concentration (IC50) against purified EcDsbB of 5.42 µM. Besides, the EC50 on DsbB amounted to 72.8 µM.
For `Cc1ccccc1Cn1ncc(Cl)c(Cl)c1=O` [Compound 16.13], on DsbB, the midpoint of the response, the EC50, lay at 3.56 µM and the “EC50 RATIO (EC50 compound 16/EC50)” value was 1.43.

Broadly, the EC50 is the concentration needed to bring the measured effect to its halfway point. A low value points to greater potency. The IC50 is the concentration that gives 50% inhibition.
